Results: patent US11427553B2, “Dihydrooxadiazinones” (Bayer Aktiengesellschaft, priority 2017, dated 2022)
pIC50: −log10 of the molar value.

What was measured:
human full length PDE3A = human full length PDE3A (Homo sapiens (Human), UniProt Q14432); assay: Assay 4 PDE3A enzyme inhibition (3H-cAMP SPA); assay type: biochemical; conditions: Sf9 cell extract
How it was run: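 Hydrolysis of [8-3H]cAMP by Sf9-expressed full-length PDE3A was measured by scintillation proximity, with enzyme diluted to keep kinetics linear and substrate consumption below 70%. Incubation ran 60 min at room temperature at pH 7.5.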

IGR37 cells = assay: Assay 1 cell proliferation measurement (CTG, 72 h), IGR37; assay type: cell-based; conditions: Homo sapiens, IGR-37, Cell Titer Glo, read-out: IGR37 IC50 [nM] (melanoma)
A-2058 cells = assay: Assay 1 cell proliferation measurement, A-2058; assay type: cell-based; conditions: Homo sapiens, A2058; Melanoma; read-out: Anti-proliferation IC50 [nM] A-2058
HeLa cells = assay: Assay 1 cell proliferation measurement (CTG, 72 h), HeLa; assay type: cell-based, human; conditions: Homo sapiens, HeLa; Assay 1, 72 h, Cell Titer Glo; read-out: HeLa IC50 [nM] (Cervical cancer)
How it was run: (§1)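 Cells were plated, grown overnight at 37 °C, then treated 72 h with a 10-step 2.5-fold dilution series from 100 nM maximum final (0.3% DMSO vehicle). Viability was read by CellTiter-Glo luminescence. IC50 from a 4-parameter fit, normalised to a 0 h plate (maximum inhibition) and DMSO control (minimum inhibition).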

HEL 92.1.7 cells = assay: Assay 1 cell proliferation measurement, HEL 92.1.7; assay type: cell-based; conditions: Homo sapiens, Erythroleukemia, read-out: Anti-proliferation IC50 [nM] HEL 92.1.7
DBTRG-05-MG cells = assay: Assay 1 cell proliferation measurement, DBTRG-05-MG; assay type: cell-based; conditions: Homo sapiens, Glioblastoma, read-out: Anti-proliferation IC50 [nM] DBTRG-05-MG
SK-MEL-3 cells = assay: Assay 1 cell proliferation measurement (CTG, 72 h), SK-MEL-3; assay type: cell-based, human; conditions: Homo sapiens, SK-MEL3; Assay 1, 72 h, Cell Titer Glo; read-out: SK-MEL-3 IC50 [nM] (melanoma)
How it was run: as §1

DK-MG cells = assay: Assay 1 cell proliferation measurement, DK-MG; assay type: cell-based; conditions: Homo sapiens; Glioblastoma; read-out: Anti-proliferation IC50 [nM] DK-MG
PA-1 cells = assay: Assay 1 cell proliferation measurement, PA-1; assay type: cell-based; conditions: Homo sapiens, Ovarian teratocarcinoma, read-out: Anti-proliferation IC50 [nM] PA-1
CHL-1 cells = assay: Assay 1 cell proliferation measurement, CHL-1; assay type: cell-based; conditions: Homo sapiens, Melanoma, read-out: Anti-proliferation IC50 [nM] CHL-1
Hs 578T cells = assay: Assay 1 cell proliferation measurement, Hs 578T; assay type: cell-based; conditions: Homo sapiens, Breast, read-out: Anti-proliferation IC50 [nM] Hs 578T
human full length PDE3B = human full length PDE3B (Homo sapiens (Human), UniProt Q13370); assay: Assay 5 PDE3B enzyme inhibition (3H-cAMP SPA); assay type: biochemical; conditions: Sf9 cell extract
human full length PDE3B, sequence (Q13370 whole entry): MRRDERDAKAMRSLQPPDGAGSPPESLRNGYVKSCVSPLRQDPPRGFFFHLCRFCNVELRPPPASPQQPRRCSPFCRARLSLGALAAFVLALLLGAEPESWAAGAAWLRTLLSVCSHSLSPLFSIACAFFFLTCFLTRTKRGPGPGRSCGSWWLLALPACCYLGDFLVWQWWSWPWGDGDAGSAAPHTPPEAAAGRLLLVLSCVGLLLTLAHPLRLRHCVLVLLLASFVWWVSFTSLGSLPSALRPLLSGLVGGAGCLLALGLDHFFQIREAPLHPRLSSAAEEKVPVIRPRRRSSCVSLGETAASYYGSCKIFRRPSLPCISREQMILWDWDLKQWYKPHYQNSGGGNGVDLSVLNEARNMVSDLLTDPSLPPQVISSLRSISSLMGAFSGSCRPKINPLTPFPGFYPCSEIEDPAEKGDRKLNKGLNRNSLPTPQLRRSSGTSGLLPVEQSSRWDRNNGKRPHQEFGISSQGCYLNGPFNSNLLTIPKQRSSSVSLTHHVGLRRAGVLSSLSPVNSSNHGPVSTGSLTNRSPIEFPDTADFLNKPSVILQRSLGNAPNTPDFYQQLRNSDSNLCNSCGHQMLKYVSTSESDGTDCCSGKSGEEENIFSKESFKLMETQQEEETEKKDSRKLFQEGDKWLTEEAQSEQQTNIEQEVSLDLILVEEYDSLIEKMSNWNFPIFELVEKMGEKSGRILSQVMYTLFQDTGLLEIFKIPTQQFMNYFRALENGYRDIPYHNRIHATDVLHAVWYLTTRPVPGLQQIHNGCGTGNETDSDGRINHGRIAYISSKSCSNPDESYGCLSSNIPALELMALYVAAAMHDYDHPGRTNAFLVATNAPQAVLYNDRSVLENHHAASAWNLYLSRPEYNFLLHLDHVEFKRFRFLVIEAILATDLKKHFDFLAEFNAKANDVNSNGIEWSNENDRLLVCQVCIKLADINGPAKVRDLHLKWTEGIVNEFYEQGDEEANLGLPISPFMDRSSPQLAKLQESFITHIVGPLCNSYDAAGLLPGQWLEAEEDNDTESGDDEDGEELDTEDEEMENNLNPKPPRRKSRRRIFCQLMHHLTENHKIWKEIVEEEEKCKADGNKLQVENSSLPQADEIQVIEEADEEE
How it was run: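 Sf9 cell extract expressing human full-length PDE3B, diluted for linear kinetics (<70% substrate use), in 50 mM Tris/HCl pH 7.5, 8.3 mM MgCl2, 1.7 mM EDTA. [8-3H]cAMP substrate, 60 min at room temperature; stopped with yttrium SPA beads, scintillation counting. IC50 from sigmoidal activity vs log concentration curves.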

[1] = Assay 6 in vitro metabolic stability in cryopreserved human hepatocytes (CL, Fmax); assay type: in vitro ADME; conditions: 1 μM test compound; for Clblood: hepatic in vivo blood clearance calculated (well-stirred) from half-life in cryopreserved human hepatocytes; for Fmax: maximal oral bioavailability calculated from half-life in cryopreserved human hepatocytes
Description: Assay 6 Method for Human Cryo Hepatocytes:
Investigation of In Vitro Metabolic Stability in Cryopreserved Human Hepatocytes (Including Calculation of Hepatic In Vivo Blood Clearance (CL) and Maximal Oral Bioavailability (Fmax))
Cryopreserved Hepatocytes (e.g. purchased from Celsis InVitroTechnologies) were briefly thawed, washed with 45 mL pre-warmed in in vitro GRO HT medium and centrifuged for 5 min at 50×g. The cell pellet was resuspended in 5 ml of Krebs-Henseleit […] (KHB). Cell viability was determined by trypan blue exclusion.
For the metabolic stability assay liver cells were distributed in WME containing 5% FCS to glass vials at a density of 1.0×10^6 vital cells/ml. The test compound was added to a final concentration of 1 μM. During incubation, the hepatocyte suspensions were continuously shaken at 580 rpm and aliquots were taken at 2, 8, 16, 30, 45 and 90 min, to which equal volumes of cold methanol were immediately added. Samples were frozen at −20° C. over night, after subsequently centrifuged for 15 minutes at 3000 rpm and the supernatant was analyzed with an Agilent 1290 HPLC-system with LCMS/MS detection.
The half-life of a test compound was determined from the concentration-time plot. From the half-life the intrinsic clearances were calculated. Together with the additional parameters liver blood flow, amount of liver cells in vivo and in vitro. The hepatic in vivo blood clearance (CL) and the maximal oral bioavailability (Fmax) was calculated.

human full length PDE3A, sequence (Q14432 whole entry): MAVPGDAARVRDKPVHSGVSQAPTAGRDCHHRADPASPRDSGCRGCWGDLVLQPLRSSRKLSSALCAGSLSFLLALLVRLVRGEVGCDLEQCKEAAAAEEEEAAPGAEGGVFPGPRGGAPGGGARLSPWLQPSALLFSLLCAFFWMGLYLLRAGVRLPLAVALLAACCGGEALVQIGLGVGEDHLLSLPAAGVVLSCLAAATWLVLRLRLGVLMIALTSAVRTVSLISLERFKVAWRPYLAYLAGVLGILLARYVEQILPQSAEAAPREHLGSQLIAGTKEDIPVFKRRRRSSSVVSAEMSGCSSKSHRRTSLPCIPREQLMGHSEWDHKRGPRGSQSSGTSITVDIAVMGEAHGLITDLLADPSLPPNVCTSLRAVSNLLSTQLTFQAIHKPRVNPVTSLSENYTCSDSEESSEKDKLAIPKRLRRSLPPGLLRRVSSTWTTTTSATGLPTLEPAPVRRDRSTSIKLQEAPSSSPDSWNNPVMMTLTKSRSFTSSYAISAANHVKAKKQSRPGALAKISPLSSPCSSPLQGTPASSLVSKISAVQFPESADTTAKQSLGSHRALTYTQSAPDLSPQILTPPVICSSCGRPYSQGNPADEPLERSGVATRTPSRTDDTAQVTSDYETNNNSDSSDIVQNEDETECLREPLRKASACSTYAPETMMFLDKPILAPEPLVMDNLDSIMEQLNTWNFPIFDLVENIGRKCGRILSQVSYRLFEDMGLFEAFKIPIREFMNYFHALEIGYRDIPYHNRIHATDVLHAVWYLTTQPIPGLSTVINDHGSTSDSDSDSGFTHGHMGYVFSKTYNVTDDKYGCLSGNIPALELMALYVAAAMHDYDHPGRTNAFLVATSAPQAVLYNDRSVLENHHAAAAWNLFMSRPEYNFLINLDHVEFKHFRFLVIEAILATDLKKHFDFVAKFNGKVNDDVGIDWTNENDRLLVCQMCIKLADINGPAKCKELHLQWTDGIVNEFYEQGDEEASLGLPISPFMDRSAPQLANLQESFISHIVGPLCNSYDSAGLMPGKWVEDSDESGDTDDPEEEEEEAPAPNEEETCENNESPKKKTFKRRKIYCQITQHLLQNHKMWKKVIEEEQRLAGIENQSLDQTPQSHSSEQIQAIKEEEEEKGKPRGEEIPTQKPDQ

SMILES	pIC50 (human full length PDE3A)	IC50 (HeLa cells) [nM]	IC50 (SK-MEL-3 cells) [nM]	pIC50 (human full length PDE3B)	Clblood [1] [mL/min/kg]	Fmax [1] [%]	IC50 (IGR37 cells) [nM]	IC50 (A-2058 cells) [nM]	IC50 (HEL 92.1.7 cells) [nM]	IC50 (DBTRG-05-MG cells) [nM]	IC50 (DK-MG cells) [nM]	IC50 (PA-1 cells) [nM]	IC50 (CHL-1 cells) [nM]	IC50 (Hs 578T cells) [nM]
C[C@@H]1OC(=O)NN=C1c1cc(Cl)c(N2CCOCC2)c(C(F)(F)F)c1 [Example 121, (6S)-5-(-[(3-Chloro-4-(morpholin-4-yl)-5-(trifluoromethyl)phenyl)-)]-6-methyl-3,6-dihydro-2H-1,3,4-oxadiazin-2-one]	6.82	5	10	6.52	2.17	90	12							
O=C1NN=C(c2ccc(-c3ccccc3C(F)F)c(F)c2)CO1 [Example 161, 5-[2′-(Difluoromethyl)-2-fluoro[1,1′-biphenyl]-4-yl]-3,6-dihydro-2H-1,3,4-oxadiazin-2-one]	7.18	6	10	7.31	9.17	59	12							
C[C@@H]1OC(=O)NN=C1c1ccc(-c2ccnc(N)c2)c(C(F)(F)F)c1 [Example 165, (6S)-5-[4-(2-Aminopyridin-4-yl)-3-(trifluoromethyl)phenyl]-6-methyl-3,6-dihydro-2H-1,3,4-oxadiazin-2-one]	7.11	1	1	7.18	14.7	33	1							
C[C@@H]1OC(=O)NN=C1c1ccc(-c2cnn(C(F)F)c2)c(C(F)(F)F)c1 [Example 190, (6S)-5-{4-[1-(Difluoromethyl)-1H-pyrazol-4-yl]-3-(trifluoromethyl)phenyl}-6-methyl-3,6-dihydro-2H-1,3,4-oxadiazin-2-one]	7.42	0.2	0.4	7.60	15	32	0.4							
Cc1ccc(C2=NNC(=O)OC2)cc1C(F)(F)F [Example 139, 5-[4-Methyl-3-(trifluoromethyl)phenyl]-3,6-dihydro-2H-1,3,4-oxadiazin-2-one]	6.85	14	29	6.51			40	> 100	> 100	> 100	61	> 100	58	> 100
CC(Nc1ccc(C2=NNC(=O)OC2)cc1C(F)(F)F)C1CC1 (racemic) [Example 240, (rac)-5-{4-[(1-cyclopropylethyl)amino]-3-(trifluoromethyl)phenyl}-3,6-dihydro-2H-1,3,4-oxadiazin-2-one]	6.74	3	12	6.59			10							

Further molecules by rising pIC50 (human full length PDE3A), results first:

pIC50 (human full length PDE3A)	IC50 (HeLa cells) [nM]	IC50 (SK-MEL-3 cells) [nM]	pIC50 (human full length PDE3B)	Clblood [1] [mL/min/kg]	Fmax [1] [%]	SMILES	IC50 (IGR37 cells) [nM]	IC50 (A-2058 cells) [nM]	IC50 (HEL 92.1.7 cells) [nM]	IC50 (DBTRG-05-MG cells) [nM]	IC50 (DK-MG cells) [nM]	IC50 (PA-1 cells) [nM]	IC50 (CHL-1 cells) [nM]	IC50 (Hs 578T cells) [nM]
6.65	6	13	6.60	4.5	80	O=C1NN=C(c2ccc(-c3ccc(F)cc3)c(OC(F)(F)F)c2)CO1 [Example 76, 5-[4′-Fluoro-2-(trifluoromethoxy)biphenyl-4-yl]-3,6-dihydro-2H-1,3,4-oxadiazin-2-one]	13							
7.00	0.3	1	7.06			C[C@@H]1OC(=O)NN=C1c1ccc(N2CCN(C)CC2)c(C(F)(F)F)c1 [Example 277, (6S)-6-Methyl-5-[4-(4-methylpiperazin-1-yl)-3-(trifluoromethyl)phenyl]-3,6-dihydro-2H-1,3,4-oxadiazin-2-one]	1	> 100	> 100	> 100	> 100	> 100	> 100	> 100
7.17	2	4	6.89			O=C1NN=C(c2ccc(-c3ccc(C(F)F)cc3)c(F)c2)CO1 [Example 92, 5-[4′-(Difluoromethyl)-2-fluoro[1,1′-biphenyl]-4-yl]-3,6-dihydro-2H-1,3,4-oxadiazin-2-one]	4	18	9	18	17	17	11	31
